Results as given in paper PMC12396409, “Screening and hit evaluation of a microbial metabolite library against the pathogenic Plasmodium falciparum and Toxoplasma gondii parasites” (International Journal for Parasitology: Drugs and Drug …, 2025).
Where two headings read alike, the source gives them in different places.

Assays:
[1] = system: P. falciparum 3D7 parasites; assay: P. falciparum growth inhibition assay, 2-cycle (120 h treatment), delayed-death screen and dose-response; assay type: cell-based, Plasmodium falciparum; conditions: for activity at 2 µg/mL: Plasmodium falciparum
[2] = system: P. falciparum 3D7 parasites; assay: P. falciparum growth inhibition assay, 1-cycle (72 h treatment), SYBR DNA staining (library screen at 2 μg/mL and dose-response); assay type: cell-based, Plasmodium falciparum; conditions: for activity at 2 µg/mL: Plasmodium falciparum
[3] = system: T. gondii RH strain (RH-Tub-eYFP) tachyzoites; assay: microbe, parasite or virus in culture; assay type: cell-based, Toxoplasma gondii; conditions: for percent parasite growth at 2 µg/mL: Toxoplasma gondii; for percent parasite growth at 2 µg/mL / Tg_72h_%Growth_Rep1 / Tg_72h_%Growth_Rep2: 72 h
[4] = T. gondii, parasite screen 2 μg/mL, % growth, replicate 1, read-out: Tg_72h_%Growth_Rep1
[5] = T. gondii, parasite screen 2 μg/mL, % growth, replicate 2, read-out: Tg_72h_%Growth_Rep2
[6] = P. falciparum 3D7, 120 h, library screen at 2 μg/mL, % growth, replicate 1
[7] = P. falciparum 3D7, 120 h, library screen at 2 μg/mL, % growth, replicate 2
[8] = P. falciparum 3D7, 72 h, library screen at 2 μg/mL, % growth, replicate 1
[9] = P. falciparum 3D7, 72 h, library screen at 2 μg/mL, % growth, replicate 2
[10] = T. gondii RH, library screen at 2 μg/mL, % growth, replicate 1
[11] = T. gondii RH, library screen at 2 μg/mL, % growth, replicate 2
[12] = 3D7, P. falciparum, 120 h, parasite screen 2 μg/mL, % growth, replicate 1, read-out: Pf_120h_%Growth_Rep1
[13] = 3D7, P. falciparum, 120 h, parasite screen 2 μg/mL, % growth, replicate 2, read-out: Pf_120h_%Growth_Rep2
[14] = 3D7, P. falciparum, 72 h, parasite screen 2 μg/mL, % growth, replicate 1, read-out: Pf_72h_%Growth_Rep1
[15] = 3D7, P. falciparum, 72 h, parasite screen 2 μg/mL, % growth, replicate 2, read-out: Pf_72h_%Growth_Rep2
[16] = active against the parasite at 2 μg/mL, no anti-tumour (NS-1) or cytotoxic (fibroblast) activity at 5 μg/mL
[17] = P. falciparum, 120 h, parasite screen 2 μg/mL, % growth, replicate 1
[18] = P. falciparum, 120 h, parasite screen 2 μg/mL, % growth, replicate 2
[19] = P. falciparum, 72 h, parasite screen 2 μg/mL, % growth, replicate 1
[20] = P. falciparum, 72 h, parasite screen 2 μg/mL, % growth, replicate 2
[21] = T. gondii, parasite screen 2 μg/mL, % growth, replicate 1
[22] = T. gondii, parasite screen 2 μg/mL, % growth, replicate 2
[23] = 3D7, 120 h, P. falciparum, 120 h, screen at 2 μg/mL, replicate 1, read-out: Pf_120h_%Growth_Rep1
[24] = 3D7, 120 h, P. falciparum, 120 h, screen at 2 μg/mL, replicate 2, read-out: Pf_120h_%Growth_Rep2
[25] = 3D7, 72 h, P. falciparum, 72 h, screen at 2 μg/mL, replicate 1, read-out: Pf_72h_%Growth_Rep1
[26] = 3D7, 72 h, P. falciparum, 72 h, screen at 2 μg/mL, replicate 2, read-out: Pf_72h_%Growth_Rep2
[27] = T. gondii, screen at 2 μg/mL, replicate 1, read-out: Tg_72h_%Growth_Rep1
[28] = T. gondii, screen at 2 μg/mL, replicate 2, read-out: Tg_72h_%Growth_Rep2
[29] = P. falciparum, 120 h, screen at 2 μg/mL, replicate 1
[30] = P. falciparum, 120 h, screen at 2 μg/mL, replicate 2
[31] = P. falciparum, 72 h, screen at 2 μg/mL, replicate 1
[32] = P. falciparum, 72 h, screen at 2 μg/mL, replicate 2
[33] = T. gondii, screen at 2 μg/mL, replicate 1
[34] = T. gondii, screen at 2 μg/mL, replicate 2

## C=CC[C@@H]1/C=C(\C)C[C@H](C)C[C@H](OC)[C@H]2O[C@@](O)(C(=O)C(=O)N3CCCC[C@H]3C(=O)O[C@H](/C(C)=C/[C@@H]3CC[C@@H](O)[C@H](OC)C3)[C@H](C)[C@@H](O)CC1=O)[C@H](C)C[C@@H]2OC [Tacrolimus]
[1]; 3D7, 120 h, P. falciparum, 120 h, parasite screen 2 μg/mL, % growth, replicate 1, read-out: Pf_120h_%Growth_Rep1
  activity at 2 µg/mL: 49.7%
[1]; 3D7, 120 h, P. falciparum, 120 h, parasite screen 2 μg/mL, % growth, replicate 2, read-out: Pf_120h_%Growth_Rep2
  activity at 2 µg/mL: 41%
[2]; 3D7, 72 h, P. falciparum, 72 h, parasite screen 2 μg/mL, % growth, replicate 1, read-out: Pf_72h_%Growth_Rep1
  activity at 2 µg/mL: 56.9%
[2]; 3D7, 72 h, P. falciparum, 72 h, parasite screen 2 μg/mL, % growth, replicate 2, read-out: Pf_72h_%Growth_Rep2
  activity at 2 µg/mL: 41.7%
[3]; [4]
  percent parasite growth at 2 µg/mL: 102%
[3]; [5]
  percent parasite growth at 2 µg/mL: 79.4%

## COC1=CC(=O)C[C@@H](C)[C@]12Oc1c(Cl)c(OC)cc(OC)c1C2=O [BIA-G1212]
[1]; [6]
  Pf_120h_%Growth_Rep1: 92.82%
[1]; [7]
  Pf_120h_%Growth_Rep2: 104.36%
[2]; [8]
  Pf_72h_%Growth_Rep1: 92.41%
[2]; [9]
  Pf_72h_%Growth_Rep2: 108.96%
[3]; [10]
  Tg_72h_%Growth_Rep1: 123.15%
[3]; [11]
  Tg_72h_%Growth_Rep2: 96.50%

## Nc1ncnc2c1ncn2[C@@H]1O[C@H](C[C@@H](N)CC[C@H](N)C(=O)O)[C@@H](O)[C@H]1O [sinefungin, reference compound]
[1]; [12]
  activity at 2 µg/mL: 13.4%
[1]; [13]
  activity at 2 µg/mL: -3.05%
[2]; [14]
  activity at 2 µg/mL: 17.1%
[2]; [15]
  activity at 2 µg/mL: 12.1%
[2]; [16]
  selectivity for P. falciparum in the screens: also active
[3]; [4]
  percent parasite growth at 2 µg/mL: 7.22%
[3]; [5]
  percent parasite growth at 2 µg/mL: 12.7%
[3]; [16]
  selectivity for T. gondii in the screens: also active

## Nc1cc2nc3ccccc3oc-2cc1=O [Questiomycin A]
[1]; [17]
  Pf_120h_%Growth_Rep1: 44.88%
[1]; [18]
  Pf_120h_%Growth_Rep2: 66.03%
[2]; [19]
  Pf_72h_%Growth_Rep1: 72.04%
[2]; [20]
  Pf_72h_%Growth_Rep2: 68.55%
[3]; [21]
  Tg_72h_%Growth_Rep1: 83.12%
[3]; [22]
  Tg_72h_%Growth_Rep2: 77.23%

## COC1C=CC=C(C)C(=O)NC2=CC(=O)C=C(C2=O)C(OC)C(C)CC(OC)C(OC)C(C)C=C(C)C1OC(N)=O (stereo not shown) [BIA-H1036]
[1]; [6]
  Pf_120h_%Growth_Rep1: 68.16%
[1]; [7]
  Pf_120h_%Growth_Rep2: 41.77%
[2]; [8]
  Pf_72h_%Growth_Rep1: 51.92%
[2]; [9]
  Pf_72h_%Growth_Rep2: 44.34%
[3]; [10]
  Tg_72h_%Growth_Rep1: 133.21%
[3]; [11]
  Tg_72h_%Growth_Rep2: 80.30%

## CC(=O)C1=C(O)[C@@H]2[C@H]3c4c[nH]c5cccc(c45)C[C@H]3C(C)(C)N2C1=O [Cyclopiazonic acid]
[1]; [23]
  activity at 2 µg/mL: 14%
[1]; [24]
  activity at 2 µg/mL: 9.35%
[2]; [25]
  activity at 2 µg/mL: 12.6%
[2]; [26]
  activity at 2 µg/mL: 7.26%
[3]; [27]
  percent parasite growth at 2 µg/mL: 0.36%
[3]; [28]
  percent parasite growth at 2 µg/mL: 3.22%

## CC1=C[C@H](C)C[C@H](C)[C@H](Cc2cnco2)OC(=O)/C(C)=C\[C@H](C)C[C@H](C)[C@H](Cc2cnco2)OC1=O [Conglobatin]
[1]; [29]
  Pf_120h_%Growth_Rep1: 82.43%
[1]; [30]
  Pf_120h_%Growth_Rep2: 72.72%
[2]; P. falciparum, 72 h, 2 μg/mL, mean of both replicates, growth (% of control)
  Mean: 52.30
[2]; [31]
  Pf_72h_%Growth_Rep1: 86.29%
[2]; [32]
  Pf_72h_%Growth_Rep2: 18.30%
[3]; [33]
  Tg_72h_%Growth_Rep1: 127.73%
[3]; [34]
  Tg_72h_%Growth_Rep2: 88.01%

## COc1c(C)c(OC(=O)c2c(C)c(C)c(OC(=O)c3c(C)cc(O)c(C)c3O)c(C)c2OC)c(C)c(C)c1C(=O)O [Thielavin B]
[1]; [29]
  Pf_120h_%Growth_Rep1: 38.21%
[1]; [30]
  Pf_120h_%Growth_Rep2: 6.65%
[2]; 2 μg/mL, 72 h, active = ≥80 % growth inhibition
  activity in the screen against P. falciparum: active
[2]; [31]
  Pf_72h_%Growth_Rep1: 13.97%
[2]; [32]
  Pf_72h_%Growth_Rep2: 7.85%
[3]; [33]
  Tg_72h_%Growth_Rep1: 86.62%
[3]; [34]
  Tg_72h_%Growth_Rep2: 101.22%

## COc1cc(C)c2c(c1C=O)Oc1c(c(C)c(O)c3c1C(O)OC3=O)OC2=O (stereo not shown) [Stictic acid]
[1]; [12]
  activity at 2 µg/mL: 88.2%
[1]; [13]
  activity at 2 µg/mL: 87.2%
[2]; [14]
  activity at 2 µg/mL: 81.8%
[2]; [15]
  activity at 2 µg/mL: 80.1%
[3]; [4]
  percent parasite growth at 2 µg/mL: 115%
[3]; [5]
  percent parasite growth at 2 µg/mL: 87%

## CC1=C[C@H]2C(=O)O[C@H]3C[C@@H](C/C=C(/C)[C@@H](O)[C@@H](C)/C=C\C=C4CO[C@H]([C@@H]1O)[C@@]42O)O[C@@]1(C=C[C@H](C)[C@@H](C2CCCCC2)O1)C3 [Doramectin aglycone]
[1]; library screen at 2 μg/mL, 120 h, % growth, replicate 1
  Pf_120h_%Growth_Rep1: 86.97%
[1]; library screen at 2 μg/mL, 120 h, % growth, replicate 2
  Pf_120h_%Growth_Rep2: 81.83%
[2]; library screen at 2 μg/mL, 72 h, % growth, replicate 1
  Pf_72h_%Growth_Rep1: 80.09%
[2]; library screen at 2 μg/mL, 72 h, % growth, replicate 2
  Pf_72h_%Growth_Rep2: 78.66%
[3]; library screen at 2 μg/mL, % growth, replicate 1
  Tg_72h_%Growth_Rep1: 167.81%
[3]; library screen at 2 μg/mL, % growth, replicate 2
  Tg_72h_%Growth_Rep2: 107.39%

## COc1cc(O)c2c(=O)oc3c(O)c(OC)cc(C)c3c2c1 [BIA-G1559]
[1]; [6]
  Pf_120h_%Growth_Rep1: 94.64%
[1]; [7]
  Pf_120h_%Growth_Rep2: 147.16%
[2]; [8]
  Pf_72h_%Growth_Rep1: 89.69%
[2]; [9]
  Pf_72h_%Growth_Rep2: 92.13%
[3]; [10]
  Tg_72h_%Growth_Rep1: 136.29%
[3]; [11]
  Tg_72h_%Growth_Rep2: 91.52%

## OC[C@H]1O[C@@H](n2cnc3c2N=CNC[C@H]3O)C[C@@H]1O [BIA-P1273]
[1]; P. falciparum 3D7, 120 h, parasite screen at 2 μg/mL, % growth, replicate 1
  Pf_120h_%Growth_Rep1: 57.41%
[1]; P. falciparum 3D7, 120 h, parasite screen at 2 μg/mL, % growth, replicate 2
  Pf_120h_%Growth_Rep2: 140.11%
[2]; P. falciparum 3D7, 72 h, parasite screen at 2 μg/mL, % growth, replicate 1
  Pf_72h_%Growth_Rep1: 69.65%
[2]; P. falciparum 3D7, 72 h, parasite screen at 2 μg/mL, % growth, replicate 2
  Pf_72h_%Growth_Rep2: 72.25%
[3]; T. gondii, parasite screen at 2 μg/mL, % growth, replicate 1
  Tg_72h_%Growth_Rep1: 120.62%
[3]; T. gondii, parasite screen at 2 μg/mL, % growth, replicate 2
  Tg_72h_%Growth_Rep2: 91.66%

## CN(C)[C@@H]1C(O)=C(C(N)=O)C(=O)[C@@]2(O)C(O)=C3C(=O)c4c(O)ccc(Cl)c4[C@@H](O)[C@H]3C[C@@H]12 [Demeclocycline]
[1]; [23]
  activity at 2 µg/mL: 101%
[1]; [24]
  activity at 2 µg/mL: 94.8%
[2]; [25]
  activity at 2 µg/mL: 85.8%
[2]; [26]
  activity at 2 µg/mL: 87%
[3]; [27]
  percent parasite growth at 2 µg/mL: 157%
[3]; [28]
  percent parasite growth at 2 µg/mL: 107%

## CO[C@@H]1[C@H](N(C)C(=O)c2ccccc2)C[C@H]2O[C@]1(C)n1c3ccccc3c3c4c(c5c6ccccc6n2c5c31)C(=O)NC4=O [Stauprimide]
[1]; [17]
  Pf_120h_%Growth_Rep1: 32.82%
[1]; [18]
  Pf_120h_%Growth_Rep2: 11.28%
[2]; [19]
  Pf_72h_%Growth_Rep1: 1.11%
[2]; [20]
  Pf_72h_%Growth_Rep2: -9.03%
[3]; [21]
  Tg_72h_%Growth_Rep1: 9.90%
[3]; [22]
  Tg_72h_%Growth_Rep2: 20.75%
